Measured values published in ChEMBL document CHEMBL3046607, “Synthesis and Herbicidal Activity of New 1-Alkyl-3-aryloxypyrazole-4-carboxamide Derivatives” (J Pestic Sci, 2004).
Calls of active or inactive are those of the source. The rule behind the calls is not given here.

How the values were obtained:
Elatine triandra [1] = assay: Post-emergence herbicidal activity against Elatine triandra assessed as bleaching of stem/leaf parts; type: functional, organism-based; also: test concentration or dose not given here
Ammannia multiflora [2] = assay: Post-emergence herbicidal activity against Ammannia multiflora assessed as bleaching of stem/leaf parts; type: functional, organism-based
Rotala indica [3] = assay: Post-emergence herbicidal activity against Rotala indica assessed as bleaching of stem/leaf parts; type: functional, organism-based
Lindernia procumbens [4] = assay: Post-emergence herbicidal activity against Lindernia procumbens assessed as bleaching of stem/leaf parts; type: functional, organism-based; also: test concentration or dose not given here
[5] = test system: Schoenoplectiella juncoides; assay: Post-emergence herbicidal activity against Schoenoplectiella juncoides assessed as bleaching of stem/leaf parts; type: functional, organism-based; also: test concentration or dose not given here
Ammannia multiflora [6] = assay: Pre-emergence herbicidal activity against Ammannia multiflora at 500 g a.i/ha measured after 14 days; type: functional, organism-based
Elatine triandra [7] = assay: Pre-emergence herbicidal activity against Elatine triandra at 500 g a.i/ha measured after 14 days; type: functional, organism-based
Oryza sativa = assay: Phytotoxicity against Oryza sativa cv. Koshihikari (rice) at 500 g a.i/ha measured after 14 days; type: organism-based; details: in vivo, 336 h
Rotala indica [8] = assay: Pre-emergence herbicidal activity against Rotala indica at 500 g a.i/ha measured after 14 days; type: functional, organism-based
Lindernia procumbens [9] = assay: Pre-emergence herbicidal activity against Lindernia procumbens at 500 g a.i/ha measured after 14 days; type: functional, organism-based
[10] = test system: Schoenoplectiella juncoides; assay: Pre-emergence herbicidal activity against Schoenoplectiella juncoides at 500 g a.i/ha measured after 14 days; type: functional, organism-based
Pontederia vaginalis [11] = assay: Pre-emergence herbicidal activity against Monochoria vaginalis at 500 g a.i/ha measured after 14 days; type: functional, organism-based
Cyperus difformis [12] = assay: Pre-emergence herbicidal activity against Cyperus difformis at 500 g a.i/ha measured after 14 days; type: functional, organism-based
Echinochloa oryzicola [13] = assay: Pre-emergence herbicidal activity against Echinochloa oryzicola at 500 g a.i/ha measured after 14 days; type: functional, organism-based
Lindernia procumbens [14] = assay: Pre-emergence herbicidal activity against Lindernia procumbens assessed as bleaching of stem/leaf parts; type: functional, organism-based
Pontederia vaginalis [15] = assay: Pre-emergence herbicidal activity against Monochoria vaginalis assessed as bleaching of stem/leaf parts; type: functional, organism-based
[16] = test system: Schoenoplectiella juncoides; assay: Pre-emergence herbicidal activity against Schoenoplectiella juncoides assessed as bleaching of stem/leaf parts; type: functional, organism-based
Cyperus difformis [17] = assay: Pre-emergence herbicidal activity against Cyperus difformis assessed as bleaching of stem/leaf parts; type: functional, organism-based
Echinochloa oryzicola [18] = assay: Pre-emergence herbicidal activity against Echinochloa oryzicola assessed as bleaching of stem/leaf parts; type: functional, organism-based
Cyperus difformis [19] = assay: Post-emergence herbicidal activity against Cyperus difformis assessed as bleaching of stem/leaf parts; type: functional, organism-based; also: test concentration or dose not given here
Pontederia vaginalis [20] = assay: Post-emergence herbicidal activity against Monochoria vaginalis assessed as bleaching of stem/leaf parts; type: functional, organism-based
Echinochloa oryzicola [21] = assay: Post-emergence herbicidal activity against Echinochloa oryzicola assessed as bleaching of stem/leaf parts; type: functional, organism-based
Ammannia multiflora [22] = assay: Pre-emergence herbicidal activity against Ammannia multiflora assessed as bleaching of stem/leaf parts; type: functional, organism-based
Elatine triandra [23] = assay: Pre-emergence herbicidal activity against Elatine triandra assessed as bleaching of stem/leaf parts; type: functional, organism-based
Rotala indica [24] = assay: Pre-emergence herbicidal activity against Rotala indica assessed as bleaching of stem/leaf parts; type: functional, organism-based

| SMILES | Activity (Elatine triandra [1]) | Activity (Ammannia multiflora [2]) | Activity (Rotala indica [3]) | Activity (Lindernia procumbens [4]) | Activity [5] | Activity (Ammannia multiflora [6]) | Activity (Elatine triandra [7]) | Activity (Oryza sativa) | Activity (Rotala indica [8]) | Activity (Lindernia procumbens [9]) | Activity [10] | Activity (Pontederia vaginalis [11]) | Activity (Cyperus difformis [12]) | Activity (Echinochloa oryzicola [13]) | Activity (Lindernia procumbens [14]) | Activity (Pontederia vaginalis [15]) | Activity [16] | Activity (Cyperus difformis [17]) | Activity (Echinochloa oryzicola [18]) | Activity (Cyperus difformis [19]) | further results |
| --- | --- | --- | --- | --- | --- | --- | --- | --- | --- | --- | --- | --- | --- | --- | --- | --- | --- | --- | --- | --- | --- |
| Cn1cc(C(=O)NCC2CCCO2)c(Oc2cccc(C(F)(F)F)c2)n1 (stereo not given) | Active | Active | Active | Active | Active | inactive | inactive | Non-toxic | inactive | inactive | inactive | inactive | inactive | inactive | Active | Active | Active | Active | Active | Active | Activity (Pontederia vaginalis [20]): Active; Activity (Echinochloa oryzicola [21]): Active; Activity (Ammannia multiflora [22]): Active; Activity (Elatine triandra [23]): Active; Activity (Rotala indica [24]): Active |
| Cn1cc(NC(=O)c2ccccc2)c(Oc2cccc(C(F)(F)F)c2)n1 | Active | Active | Active | Active | Active | inactive | inactive | Non-toxic | inactive | inactive | inactive | inactive | inactive | Active | Active | Active | Active | Active | Active | Active | Activity (Pontederia vaginalis [20]): Active; Activity (Echinochloa oryzicola [21]): Active; Activity (Ammannia multiflora [22]): Active; Activity (Elatine triandra [23]): Active; Activity (Rotala indica [24]): Active |
| C#CCNC(=O)c1cn(C)nc1Oc1cccc(C(F)(F)F)c1 | Active | Active | Active | Active | Active | inactive | inactive | Non-toxic | inactive | inactive | inactive | inactive | inactive | inactive | Active | Active | Active | Active | Active | Active | Activity (Pontederia vaginalis [20]): Active; Activity (Echinochloa oryzicola [21]): Active; Activity (Ammannia multiflora [22]): Active; Activity (Elatine triandra [23]): Active; Activity (Rotala indica [24]): Active |
| CSc1ccc(Oc2nn(C)cc2C(=O)Nc2ccc(F)cc2F)cc1C(F)(F)F | Active | Active | Active | Active | Active | Active | Active | Non-toxic | Active | Active | inactive | Active | Active | Active | Active | Active | Active | Active | Active | Active | Activity (Pontederia vaginalis [20]): Active; Activity (Echinochloa oryzicola [21]): Active; Activity (Ammannia multiflora [22]): Active; Activity (Elatine triandra [23]): Active; Activity (Rotala indica [24]): Active |
| CCCN(CC)C(=O)c1cn(C)nc1Oc1cccc(C(F)(F)F)c1 | Active | Active | Active | Active | Active | inactive | inactive | Non-toxic | inactive | inactive | inactive | inactive | inactive | inactive | Active | Active | Active | Active | Active | Active | Activity (Pontederia vaginalis [20]): Active; Activity (Echinochloa oryzicola [21]): Active; Activity (Ammannia multiflora [22]): Active; Activity (Elatine triandra [23]): Active; Activity (Rotala indica [24]): Active |
| Cn1cc(C(=O)N2CCCC2)c(Oc2cccc(C(F)(F)F)c2)n1 | Active | Active | Active | Active | Active | inactive | inactive | Non-toxic | inactive | inactive | inactive | inactive | inactive | inactive | Active | Active | Active | Active | Active | Active | Activity (Pontederia vaginalis [20]): Active; Activity (Echinochloa oryzicola [21]): Active; Activity (Ammannia multiflora [22]): Active; Activity (Elatine triandra [23]): Active; Activity (Rotala indica [24]): Active |
| CC(NC(=O)c1cn(C)nc1Oc1cccc(C(F)(F)F)c1)c1ccccc1 (stereo not given) | Active | Active | Active | Active | Active | inactive | inactive | Non-toxic | inactive | inactive | inactive | inactive | inactive | inactive | Active | Active | Active | Active | Active | Active | Activity (Pontederia vaginalis [20]): Active; Activity (Echinochloa oryzicola [21]): Active; Activity (Ammannia multiflora [22]): Active; Activity (Elatine triandra [23]): Active; Activity (Rotala indica [24]): Active |
| Cn1cc(NC(=O)c2ccc(F)cc2F)c(Oc2cccc(C(F)(F)F)c2)n1 | Active | Active | Active | Active | Active | inactive | inactive | Non-toxic | inactive | inactive | inactive | inactive | inactive | inactive | Active | Active | Active | Active | Active | Active | Activity (Pontederia vaginalis [20]): Active; Activity (Echinochloa oryzicola [21]): Active; Activity (Ammannia multiflora [22]): Active; Activity (Elatine triandra [23]): Active; Activity (Rotala indica [24]): Active |
| Cn1cc(NC(=O)c2ccc(F)cc2F)c(OCc2cccc(C(F)(F)F)c2)n1 | Active | Active | Active | Active | Active | Active | Active | Non-toxic | Active | Active | Active | Active | Active | Active | Active | Active | Active | Active | Active | Active | Activity (Pontederia vaginalis [20]): Active; Activity (Echinochloa oryzicola [21]): Active; Activity (Ammannia multiflora [22]): Active; Activity (Elatine triandra [23]): Active; Activity (Rotala indica [24]): Active |
